Measurements: the NIST ThermoML archive (doi:10.1016/j.jct.2012.09.031)
Where “and” joins values, the source holds several entries; their conditions need not be identical. Equal values may be shown once. ± gives the expanded uncertainty stated by the source.

Tests used:
[1] = Crystal, Calculated from knudsen effusion weight loss
[2] = molar enthalpy of vaporization or sublimation; conditions: 298.15 K; Crystal; Static calorimetry

SMILES: O=[N+]([O-])c1ccccc1I [1-iodo-2-nitrobenzene]
- vapor or sublimation pressure ([1]; 287.15 K): 8.2e-05 ± 2e-05 kPa and 8.5e-05 ± 2e-05 kPa
- vapor or sublimation pressure ([1]; 289.14 K): 0.000107 ± 2e-05 kPa and 0.000103 ± 2e-05 kPa
- vapor or sublimation pressure ([1]; 291.13 K): 0.000139 ± 2.1e-05 kPa and 0.000141 ± 2.1e-05 kPa and 0.000135 ± 2.1e-05 kPa
- vapor or sublimation pressure ([1]; 293.14 K): 0.000175 ± 2.1e-05 kPa and 0.000178 ± 2.1e-05 kPa and 0.000184 ± 2.1e-05 kPa
- vapor or sublimation pressure ([1]; 295.15 K): 0.000224 ± 2.2e-05 kPa and 0.000226 ± 2.2e-05 kPa and 0.00023 ± 2.2e-05 kPa
- vapor or sublimation pressure ([1]; 297.14 K): 0.000283 ± 2.2e-05 kPa and 0.000289 ± 2.2e-05 kPa and 0.000288 ± 2.2e-05 kPa
- vapor or sublimation pressure ([1]; 299.14 K): 0.000373 ± 2.4e-05 kPa and 0.000375 ± 2.4e-05 kPa and 0.000374 ± 2.4e-05 kPa
- vapor or sublimation pressure ([1]; 301.14 K): 0.000458 ± 2.6e-05 kPa and 0.000466 ± 2.6e-05 kPa and 0.000479 ± 2.6e-05 kPa
- vapor or sublimation pressure ([1]; 303.13 K): 0.000609 ± 2.9e-05 kPa and 0.000616 ± 3e-05 kPa
- vapor or sublimation pressure ([1]; 305.14 K): 0.000767 ± 3.4e-05 kPa and 0.000768 ± 3.4e-05 kPa and 0.000777 ± 3.4e-05 kPa
- vapor or sublimation pressure ([1]; 307.14 K): 0.000974 ± 4e-05 kPa and 0.000975 ± 4e-05 kPa and 0.000998 ± 4.1e-05 kPa
- molar enthalpy [2]: 21.5 ± 0.765 kcal/mol

SMILES: O=[N+]([O-])c1cccc(I)c1 [1-iodo-3-nitrobenzene]
- vapor or sublimation pressure ([1]; 287.14 K): 0.000148 ± 2.1e-05 kPa and 0.000145 ± 2.1e-05 kPa
- vapor or sublimation pressure ([1]; 289.15 K): 0.000187 ± 2.1e-05 kPa and 0.000191 ± 2.1e-05 kPa
- vapor or sublimation pressure ([1]; 291.13 K): 0.000238 ± 2.2e-05 kPa
- vapor or sublimation pressure ([1]; 293.13 K): 0.000309 ± 2.3e-05 kPa and 0.000314 ± 2.3e-05 kPa
- vapor or sublimation pressure ([1]; 295.15 K): 0.000392 ± 2.4e-05 kPa and 0.0004 ± 2.5e-05 kPa
- vapor or sublimation pressure ([1]; 297.14 K): 0.000508 ± 2.7e-05 kPa and 0.000506 ± 2.7e-05 kPa
- vapor or sublimation pressure ([1]; 299.14 K): 0.000641 ± 3e-05 kPa and 0.000643 ± 3e-05 kPa
- vapor or sublimation pressure ([1]; 301.14 K): 0.000812 ± 3.5e-05 kPa
- vapor or sublimation pressure ([1]; 303.13 K): 0.001033 ± 8.1e-05 kPa and 0.001074 ± 8.5e-05 kPa
- molar enthalpy [2]: 21.4 ± 0.717 kcal/mol

SMILES: O=[N+]([O-])c1ccc(I)cc1 [1-iodo-4-nitrobenzene]
- vapor or sublimation pressure ([1]; 311.18 K): 9.7e-05 ± 2e-05 kPa and 9.4e-05 ± 2e-05 kPa and 9.3e-05 ± 2e-05 kPa
- vapor or sublimation pressure ([1]; 313.17 K): 0.000121 ± 2e-05 kPa and 0.000114 ± 2e-05 kPa and 0.000118 ± 2e-05 kPa
- vapor or sublimation pressure ([1]; 315.11 K): 0.000151 ± 2.1e-05 kPa and 0.00015 ± 2.1e-05 kPa and 0.000152 ± 2.1e-05 kPa
- vapor or sublimation pressure ([1]; 317.18 K): 0.000179 ± 2.1e-05 kPa and 0.000193 ± 2.1e-05 kPa
- vapor or sublimation pressure ([1]; 319.13 K): 0.00023 ± 2.2e-05 kPa and 0.000226 ± 2.2e-05 kPa
- vapor or sublimation pressure ([1]; 321.1 K): 0.000282 ± 2.2e-05 kPa and 0.000277 ± 2.2e-05 kPa and 0.000283 ± 2.2e-05 kPa
- vapor or sublimation pressure ([1]; 323.18 K): 0.000355 ± 2.4e-05 kPa and 0.000354 ± 2.4e-05 kPa and 0.000359 ± 2.4e-05 kPa
- vapor or sublimation pressure ([1]; 325.18 K): 0.000451 ± 2.6e-05 kPa and 0.000436 ± 2.5e-05 kPa and 0.000455 ± 2.6e-05 kPa
- vapor or sublimation pressure ([1]; 327.12 K): 0.00055 ± 2.8e-05 kPa and 0.000546 ± 2.8e-05 kPa and 0.000552 ± 2.8e-05 kPa
- vapor or sublimation pressure ([1]; 329.18 K): 0.000672 ± 3.1e-05 kPa and 0.000673 ± 3.1e-05 kPa
- vapor or sublimation pressure ([1]; 331.18 K): 0.000856 ± 3.6e-05 kPa and 0.00083 ± 3.6e-05 kPa and 0.000857 ± 3.6e-05 kPa
- vapor or sublimation pressure ([1]; 333.11 K): 0.001045 ± 8.2e-05 kPa and 0.001036 ± 8.1e-05 kPa and 0.001018 ± 7.9e-05 kPa
- molar enthalpy [2]: 23.5 ± 0.813 kcal/mol
